Laboratory results reported in EPA's ToxValDB 9.5.
Several values for one entry are separate records, joined by “and”; a condition that tells them apart may be missing. Equal entries are not always repeated. One block for each compound: values may come before it.

Assays:
Rattus norvegicus [1] = settings: for LD50 / LC50: acute
Rattus norvegicus [2] = settings: oral, gavage; for LOAEL / NOAEL: Sprague-Dawley
[3] = chronic, duration: 16 weeks, oral, diet, Wistar
[4] = reproduction developmental, duration: 4 weeks, M, Rjhan:SD, generation: P0, P0: Whole Body: Clinical Observations
[5] = reproduction developmental, duration: 4 weeks, M, generation: P0, P0: General Toxicity: Whole Body: Body Weight + P0: General Toxicity: Whole Body: Clinical Observations + P0: General Toxicity: Whole Body: …
[6] = reproduction developmental, duration: 6 weeks, F, Rjhan:SD, generation: P0, P0: Whole Body: Clinical Observations
[7] = reproduction developmental, duration: 54 days, F, generation: P0, P0: General Toxicity: Whole Body: Body Weight + P0: General Toxicity: Whole Body: Clinical Observations + P0: General Toxicity: Whole Body: …
[8] = repeat dose other, inhalation, Sprague-Dawley
[9] = subchronic, duration: 3 months, inhalation, Sprague-Dawley

SMILES: CCCCCCCC/C=C\CCCCCCCC(=O)OC[C@@H](O)[C@H]1OC[C@H](O)[C@H]1O [Sorbitan, mono-(9Z)-9-octadecenoate]
- LD50 (Rattus norvegicus [1]; oral, gavage): > 39800 mg/kg
- LD50 (Rattus norvegicus [1]; oral, gavage, Wistar): > 39800 mg/kg
- LOAEL (% diet) (Rattus norvegicus [1]; [3]): 2.5
- NOAEL (Rattus norvegicus [1]; [3]): 1700 mg/kg-day
- NOAEL (Rattus norvegicus [1]; chronic, oral, diet): 1450 mg/kg-day
- NOAEL (% diet) (Rattus norvegicus [1]; chronic, oral, diet): 2.5

- LEL (Rattus norvegicus [2]; [4]): 300 mg/kg-day
- NEL (Rattus norvegicus [2]; [4]): 100 mg/kg-day
- NEL (Rattus norvegicus [2]; reproduction developmental, duration: 6 weeks, F, Rjhan:SD, generation: P0, P0: Multi-organ: Histopathology, Unspecified + P0: Multi-organ: Organ Weights, Unspecified + P0: Ovary: Corpora Lutea + P0: Uterus: …): 1000 mg/kg-day
- LEL (Rattus norvegicus [2]; [6]): 1000 mg/kg-day
- NEL (Rattus norvegicus [2]; [6]): 300 mg/kg-day
- NEL (Rattus norvegicus [2]; short-term, duration: 28 days, F, Crj:CD, Adrenal: Adrenal Gland Weight, Absolute + Adrenal: Adrenal Gland Weight, Absolute, Recovery + Adrenal: Adrenal Gland Weight, Relative + …): 1000 mg/kg-day
- LEL (Rattus norvegicus [2]; short-term, duration: 28 days, F, Crj:CD, Blood: Platelet Count (PLT) + Blood: Total Protein (TP), Blood + Forestomach: Boundary Ridge Protrusion + Kidney: Pyelectasis + Stomach: …): 1000 mg/kg-day
- NEL (Rattus norvegicus [2]; short-term, duration: 28 days, F, Crj:CD, Blood: Platelet Count (PLT) + Blood: Total Protein (TP), Blood + Forestomach: Boundary Ridge Protrusion + Stomach: Glandular Stomach, …): 200 mg/kg-day
- NEL (Rattus norvegicus [2]; short-term, duration: 28 days, M, Crj:CD, Adrenal: Adrenal Gland Weight, Absolute + Adrenal: Adrenal Gland Weight, Absolute, Recovery + Adrenal: Adrenal Gland Weight, Relative + …): 1000 mg/kg-day
- LEL (Rattus norvegicus [2]; short-term, duration: 28 days, M, Crj:CD, Blood: Albumin/Globulin (A/G) Ratio, Recovery + Blood: Calcium (CA), Recovery, Blood + Blood: Chloride (CL), Recovery, Blood + Forestomach: …): 1000 mg/kg-day
- NEL (Rattus norvegicus [2]; short-term, duration: 28 days, M, Crj:CD, Forestomach: Boundary Ridge Protrusion): 200 mg/kg-day
SMILES: O=S(=O)(O)C(F)(F)F [Trifluoromethanesulfonic acid]
- LOAEL (Rattus norvegicus [2]; developmental, duration: 54 days, M/F, generation: F1, F1: Developmental: Whole Body: Dams with Liveborn Pups + F1: Developmental: Whole Body: Lactation Index + F1: Developmental: Whole Body: …): 300 mg/kg-day
- NEL (Rattus norvegicus [2]; reproduction developmental, duration: 4 weeks, M, Rjhan:SD, generation: P0, P0: Multi-organ: Histopathology, Unspecified + P0: Multi-organ: Organ Weights, Unspecified + P0: Whole Body: Body Weight, Absolute + P0: …): 1000 mg/kg-day
- LOAEL (Rattus norvegicus [2]; [5]): 300 mg/kg-day
- NOAEL (Rattus norvegicus [2]; [5]): 100 mg/kg-day
- NOAEL (Rattus norvegicus [2]; reproduction developmental, duration: 4 weeks, M, generation: P0, P0: Whole Body: Whole Body: Histopathology, Unspecified): 1000 mg/kg-day
- NEL (Rattus norvegicus [2]; reproduction developmental, duration: 6 weeks, M/F, Rjhan:SD, generation: F1, F1: Whole Body: Body Weight, Absolute + F1: Whole Body: Clinical Observations + F1: Whole Body: Dams with Liveborn Pups + F1: Whole Body: …): 1000 mg/kg-day
- LOAEL (Rattus norvegicus [2]; reproduction developmental, duration: 54 days, F, generation: P0, P0: Developmental: Uterus: Implantation + P0: Developmental: Uterus: Post-Implantation Loss + P0: Developmental: Uterus: Pre-Implantation …): 300 mg/kg-day
- LOAEL (Rattus norvegicus [2]; [7]): 300 mg/kg-day
- NOAEL (Rattus norvegicus [2]; [7]): 100 mg/kg-day

SMILES: CCCCCCCCCCCCCCN(C)C [Dimethyl(tetradecyl)amine]
- LD50 (Rattus norvegicus [1]; oral, gavage): 2120 mg/kg
- LD50 (Rattus norvegicus [1]; oral, gavage, Wistar): 1320 mg/kg

SMILES: O=C(OCCOCCOCCOC(=O)c1ccccc1)c1ccccc1 [Ethylenebis(oxyethylene) dibenzoate]
- LD50 (Rattus norvegicus [1]; dermal, Sprague-Dawley): > 2000 mg/kg
- LD50 (Rattus norvegicus [1]; oral, Sprague-Dawley): 4190 mg/kg and 3540 mg/kg and 4840 mg/kg
- NOAEL (Rattus norvegicus [1]; developmental, duration: 14 days, oral, gavage, Sprague-Dawley): 1000 mg/kg-day
- NOAEL (Rattus norvegicus [1]; subchronic, duration: 13 weeks, oral, diet, F): 1000 mg/kg-day
- NOAEL (Rattus norvegicus [1]; subchronic, duration: 13 weeks, oral, diet, M): 1000 mg/kg-day

SMILES: CC(O)CN(CC(C)O)CC(C)O (stereo not given) [Triisopropanolamine]
- LD50 (Rattus norvegicus [1]; oral, gavage, Wistar): 6500 mg/kg
- NOAEL (Rattus norvegicus [1]; chronic, duration: 102 weeks, oral, diet, Wistar): > 1220 mg/kg-day
- NOAEL (Rattus norvegicus [1]; developmental, duration: 6 days, oral, gavage, Wistar): ≥ 1000 mg/kg-day
- NOAEL (Rattus norvegicus [1]; reproduction developmental, duration: 6 days, oral, gavage, F, Wistar): 400 mg/kg-day

SMILES: CS [Methanethiol]
- LC50 (Rattus norvegicus [1]; inhalation, Sprague-Dawley): 1330 mg/m3 and ≥ 1260 mg/m3 and ≤ 1390 mg/m3
- LC50 (Rattus norvegicus [1]; inhalation, WBS/W): 3310 mg/m3 and ≥ 2810 mg/m3 and ≤ 3900 mg/m3
- LOAEL (Rattus norvegicus [1]; [8]): 112 mg/m3
- NOAEL (Rattus norvegicus [1]; [8]): 33.4 mg/m3
- LOAEL (Rattus norvegicus [1]; [9]): 112 mg/m3
- NOAEL (Rattus norvegicus [1]; [9]): 33.4 mg/m3

SMILES: Fc1ccccc1 [Fluorobenzene]
- LC50 (Rattus norvegicus [1]; inhalation): 26900 mg/m3
- NOAEL (Rattus norvegicus [1]; short-term, duration: 28 days, inhalation, F, Sprague-Dawley): 0.37 mg/L
- NOAEL (Rattus norvegicus [1]; short-term, duration: 28 days, inhalation, M, Sprague-Dawley): 0.37 mg/L

SMILES: CCCCOP(=O)(O)OCCCC [Phosphoric acid, dibutyl ester]
- NOAEL (Rattus norvegicus [1]; subchronic, oral, gavage, Sprague-Dawley): 30 mg/kg-day

SMILES: C=CCCC#N [4-Pentenenitrile]
- LC50 (Rattus norvegicus [1]; inhalation, Sprague-Dawley): 8460 mg/m3

SMILES: CC(C)OC(=O)CCCCC(=O)OC(C)C [Diisopropyl adipate]
- LD50 (Rattus norvegicus [1]; oral): > 15000 mg/kg

SMILES: C=CCC [1-Butene]
- NOAEL (Rattus norvegicus [1]; reproduction developmental, duration: 28 days, inhalation, Sprague-Dawley, generation: F0): 18400 mg/m3
- NOAEL (Rattus norvegicus [1]; reproduction developmental, inhalation, F, Sprague-Dawley): 18400 mg/m3
- NOAEL (Rattus norvegicus [1]; reproduction developmental, inhalation, M, Sprague-Dawley): 18400 mg/m3
- NOAEL (Rattus norvegicus [1]; reproduction developmental, inhalation, Sprague-Dawley, generation: F0): 18400 mg/m3
- NOAEL (Rattus norvegicus [1]; reproduction developmental, inhalation, Sprague-Dawley, generation: F1): 18400 mg/m3

SMILES: O=[N+]([O-])c1cccc(Cl)c1 [1-Chloro-3-nitrobenzene]
- LD50 (Rattus norvegicus [1]; oral, gavage, Sprague-Dawley): 400 mg/kg
